Assays:
[1] = target: T1, α7 nicotinic acetylcholine receptor (α7 nAChR) (Homo sapiens, UniProt P36544); experiment: two-electrode voltage clamp in Xenopus oocytes; format: cell-based
[2] = target: T1, α7 nicotinic acetylcholine receptor (α7 nAChR); experiment: two-electrode voltage clamp in Xenopus oocytes; format: cell-based; remark: listed apart in the source

T1 sequence (P36544 23-502): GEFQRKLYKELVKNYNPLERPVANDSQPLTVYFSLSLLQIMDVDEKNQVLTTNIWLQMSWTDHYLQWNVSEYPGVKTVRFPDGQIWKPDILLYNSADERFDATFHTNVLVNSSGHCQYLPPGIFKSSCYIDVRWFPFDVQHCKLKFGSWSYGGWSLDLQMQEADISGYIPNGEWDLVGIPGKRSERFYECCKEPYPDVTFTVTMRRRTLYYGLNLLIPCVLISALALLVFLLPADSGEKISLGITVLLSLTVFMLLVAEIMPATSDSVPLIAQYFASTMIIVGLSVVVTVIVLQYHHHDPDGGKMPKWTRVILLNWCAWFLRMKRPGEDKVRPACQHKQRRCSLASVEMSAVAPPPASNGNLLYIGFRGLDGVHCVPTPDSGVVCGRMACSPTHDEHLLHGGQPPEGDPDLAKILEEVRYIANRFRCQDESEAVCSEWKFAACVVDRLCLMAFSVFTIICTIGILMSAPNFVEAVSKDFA

Row | SMILES | EC50 [1] | IC50 [2]
1 | O=c1c(O)c(-c2ccc(O)c(O)c2)oc2cc(O)cc(O)c12 [Que, quercetin] | 35.1 ± 3.8 µM | –
2 | C[C@@H]1O[C@@H](OC[C@H]2O[C@@H](Oc3c(-c4ccc(O)c(O)c4)oc4cc(O)cc(O)c4c3=O)[C@H](O)[C@@H](O)[C@@H]2O)[C@H](O)[C@H](O)[C@H]1O [Rutin, quercetin-3-O-rutinoside] | – | 70.4 ± 3.6 µM
